Assays:
[1] = biological target: Cytochrome P450 3A4 (Homo sapiens, UniProt P08684); assay: Inhibition of CYP3A4 (unknown origin) expressed in baculovirus infected insect supersomes preincubated for 15 mins followed by addition of NADPH regenerating system by fluorescence based analysis; assay type: ADME
[2] = biological target: T1, Oxysterols receptor LXR-alpha (Homo sapiens, UniProt Q13133); assay: Activation of human LXRalpha co-expressed with TK-luciferase reporter in African green monkey CV-1 cells incubated for overnight by Steady-Glo luciferase reporter gene based luminescence analysis; assay type: cell-based
T1 sequence (Q13133 whole entry): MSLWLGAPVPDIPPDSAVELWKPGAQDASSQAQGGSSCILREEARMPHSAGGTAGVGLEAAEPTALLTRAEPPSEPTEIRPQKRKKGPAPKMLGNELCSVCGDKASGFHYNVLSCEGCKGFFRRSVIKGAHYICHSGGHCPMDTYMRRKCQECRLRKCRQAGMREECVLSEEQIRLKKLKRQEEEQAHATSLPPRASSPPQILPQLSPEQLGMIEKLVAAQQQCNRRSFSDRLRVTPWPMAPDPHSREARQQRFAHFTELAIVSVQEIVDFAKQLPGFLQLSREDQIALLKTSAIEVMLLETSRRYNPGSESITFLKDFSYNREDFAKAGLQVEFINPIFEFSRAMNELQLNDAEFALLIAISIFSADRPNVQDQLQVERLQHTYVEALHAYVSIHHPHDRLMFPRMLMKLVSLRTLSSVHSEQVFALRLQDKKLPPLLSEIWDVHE

[3] = Metabolic stability in mouse liver microsomes assessed as half life; assay type: ADME, Microsome
[4] = biological target: T2, Nuclear receptor ROR-gamma (Homo sapiens, UniProt P51449); assay: Displacement of [3H]25-hydroxycholesterol from human N-terminal His-tagged RORgammaT LBD (262 to 508 residues) expressed in Escherichia coli preincubated for 10 mins followed by addition [3H]25-OH cholesterol and measured after 10 mins by scintillation proximity assay
T2 sequence (P51449 whole entry): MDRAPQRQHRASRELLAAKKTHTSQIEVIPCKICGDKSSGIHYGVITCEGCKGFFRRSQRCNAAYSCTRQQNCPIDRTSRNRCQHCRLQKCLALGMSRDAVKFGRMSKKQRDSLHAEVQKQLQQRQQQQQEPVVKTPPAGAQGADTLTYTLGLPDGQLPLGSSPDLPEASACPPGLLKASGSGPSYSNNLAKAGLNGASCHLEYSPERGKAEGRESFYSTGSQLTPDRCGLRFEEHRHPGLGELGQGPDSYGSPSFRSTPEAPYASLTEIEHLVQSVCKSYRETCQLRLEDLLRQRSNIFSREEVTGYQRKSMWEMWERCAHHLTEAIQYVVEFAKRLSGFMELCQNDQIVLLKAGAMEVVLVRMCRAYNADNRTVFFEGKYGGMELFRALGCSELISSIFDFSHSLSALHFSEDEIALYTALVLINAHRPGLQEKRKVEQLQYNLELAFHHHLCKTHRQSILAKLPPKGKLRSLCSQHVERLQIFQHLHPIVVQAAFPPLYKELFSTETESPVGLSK

Sequence of Cytochrome P450 3A4 (P08684 whole entry): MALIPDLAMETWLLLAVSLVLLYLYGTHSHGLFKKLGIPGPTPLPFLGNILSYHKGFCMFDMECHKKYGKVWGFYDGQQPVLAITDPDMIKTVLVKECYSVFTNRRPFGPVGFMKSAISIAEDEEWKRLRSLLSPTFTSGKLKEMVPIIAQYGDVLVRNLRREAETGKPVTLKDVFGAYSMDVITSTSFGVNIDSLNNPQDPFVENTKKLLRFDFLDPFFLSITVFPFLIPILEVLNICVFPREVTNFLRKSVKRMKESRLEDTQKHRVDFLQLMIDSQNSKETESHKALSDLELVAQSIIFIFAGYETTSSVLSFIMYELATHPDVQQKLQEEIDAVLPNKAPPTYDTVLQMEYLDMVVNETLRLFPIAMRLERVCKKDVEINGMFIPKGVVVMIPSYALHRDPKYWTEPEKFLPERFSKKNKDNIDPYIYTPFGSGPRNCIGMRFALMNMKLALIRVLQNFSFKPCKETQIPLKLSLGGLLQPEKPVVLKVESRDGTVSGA

IC50 [1]: > 40 µM
EC50 [2]: > 40 µM
half-life [3]: > 2 h
IC50 [4]: > 40 µM
Structure (SMILES): O=C(O)c1cc(C(F)(F)F)c2cc(N3CCC4(C=C(c5c(-c6c(Cl)cncc6Cl)noc5C5CC5)C4)CC3)ccc2n1
